# Tested on: HCT116 colorectal cancer cells
# Assay: Cisplatin sensitization assay (96 h MTS cell viability);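 also: compound concentration needed to lower the IC50 of Cisplatin alone by a set fold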
# Assay type: cell-based
# Conditions: Cisplatin sensitization value
# How it was run: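 The MTS viability read, after 1 h with reagent, followed 96 h of co-treatment at 37° C. in 5% CO2. Both compound and cisplatin were titrated 2-fold from a 10 μM top final concentration in a complete concentration matrix on HCT116 cells. Scores +++/++/+ reflect cisplatin sensitization value ranges.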
row,Structure (SMILES),Cisplatin Sensitization Assay
1,"CN1CCN(c2c(NC(=O)c3c(N)nn4cc(F)cnc34)cncc2C(F)F)CC1 [I-N-111, 2-amino-N-(5-(difluoromethyl)-4-(4-methylpiperazin-1-yl)pyridin-3-yl)-6-fluoropyrazolo[1,5-a]pyrimidine-3-carboxamide]",++ (Compounds with a Cisplatin sensitization value >0.02 μM but <0.2 μM are marked with “++.”)
2,"Nc1nn2cc(F)cnc2c1C(=O)Nc1cnccc1N1CCN(C2COC2)C2CC21 (stereo not shown) [I-N-112, 2-amino-6-fluoro-N-(4-(5-(oxetan-3-yl)-2,5-diazabicyclo[4.1.0]heptan-2-yl)pyridin-3-yl)pyrazolo[1,5-a]pyrimidine-3-carboxamide]",+ (Compounds with a Cisplatin sensitization value >0.2 μM but <5 μM are marked with “+.”)
3,"CN1CCN(c2c(C#N)cncc2NC(=O)c2c(N)nn3cc(F)cnc23)CC1 [I-N-113, 2-amino-N-(5-cyano-4-(4-methylpiperazin-1-yl)pyridin-3-yl)-6-fluoropyrazolo[1,5-a]pyrimidine-3-carboxamide]",+ (Compounds with a Cisplatin sensitization value >0.2 μM but <5 μM are marked with “+.”)
4,"Nc1nn2cc(F)cnc2c1C(=O)Nc1cnccc1N1CCN2CCOC[C@@H]2C1 [I-N-115, (S)-2-amino-6-fluoro-N-(4-(hexahydropyrazino[2,1-c][1,4]oxazin-8(1H)-yl)pyridin-3-yl)pyrazolo[1,5-a]pyrimidine-3-carboxamide]",+++ (Compounds with a Cisplatin sensitization value of <0.02 μM are marked with “+++.”)
5,"Nc1nn2cc(F)cnc2c1C(=O)Nc1cnccc1N1CCN2CCOC[C@H]2C1 [I-N-116, (R)-2-amino-6-fluoro-N-(4-(hexahydropyrazino[2,1-c][1,4]oxazin-8(1H)-yl)pyridin-3-yl)pyrazolo[1,5-a]pyrimidine-3-carboxamide]",++ (Compounds with a Cisplatin sensitization value >0.02 μM but <0.2 μM are marked with “++.”)
6,"Nc1nn2cc(Cl)cnc2c1C(=O)Nc1cncc(F)c1N1CCN(C2COC2)CC1 [I-N-117, 2-amino-6-chloro-N-(5-fluoro-4-(4-(oxetan-3-yl)piperazin-1-yl)pyridin-3-yl)pyrazolo[1,5-a]pyrimidine-3-carboxamide]",+++ (Compounds with a Cisplatin sensitization value of <0.02 μM are marked with “+++.”)
7,"Nc1nn2cc(F)cnc2c1C(=O)Nc1cncc(F)c1N1CCNCC1 [I-N-118, 2-amino-6-fluoro-N-(5-fluoro-4-(piperazin-1-yl)pyridin-3-yl)pyrazolo[1,5-a]pyrimidine-3-carboxamide]",+++ (Compounds with a Cisplatin sensitization value of <0.02 μM are marked with “+++.”)
8,"Nc1nn2cc(F)cnc2c1C(=O)Nc1cncc(C2CC2)c1N1CCN([C@@H]2CCOC2)CC1 [I-N-119, (R)-2-amino-N-(5-cyclopropyl-4-(4-(tetrahydrofuran-3-yl)piperazin-1-yl)pyridin-3-yl)-6-fluoropyrazolo[1,5-a]pyrimidine-3-carboxamide]",++ (Compounds with a Cisplatin sensitization value >0.02 μM but <0.2 μM are marked with “++.”)
9,"Nc1nn2cc(F)cnc2c1C(=O)Nc1cncc(C2CC2)c1N1CCN([C@H]2CCOC2)CC1 [I-N-120, (S)-2-amino-N-(5-cyclopropyl-4-(4-(tetrahydrofuran-3-yl)piperazin-1-yl)pyridin-3-yl)-6-fluoropyrazolo[1,5-a]pyrimidine-3-carboxamide]",+++ (Compounds with a Cisplatin sensitization value of <0.02 μM are marked with “+++.”)
10,"Nc1nn2cc(F)cnc2c1C(=O)Nc1cncc(F)c1N1CCN(C2CCOCC2)CC1 [I-N-121, 2-amino-6-fluoro-N-(5-fluoro-4-(4-(tetrahydro-2H-pyran-4-yl)piperazin-1-yl)pyridin-3-yl)pyrazolo[1,5-a]pyrimidine-3-carboxamide]",+++ (Compounds with a Cisplatin sensitization value of <0.02 μM are marked with “+++.”)

# Reference: patent US11117900B2 (Vertex Pharmaceuticals Incorporated, priority 2012, dated 2021)
